Laboratory results: publication PMC6269653, “Stability and Antioxidant Activity of Semi-synthetic Derivatives of 4-Nerolidylcatechol” (Molecules, 2012)
Marks after values point to notes of the source that are not given here.

What was measured:
[1] = test system: 3T3L1 mouse embryonic fibroblast cell line; experiment: Cellular antioxidant activity (oxidation of DCFH-DA); format: cell-based; set-up: inhibition of the oxidation of DCFH-DA in 3T3L1 cells: concentration or dose not given beside the values; details: over the observation period of 60 min
Description: These tests evaluate the reducing effect of a given substance on the radical species formed in situ during these assays leading to a decrease in color versus controls that is measured spectrophotometrically. […] Thus, at a concentration of 250 µM, 4-NC inhibited DPPH• and ABTS+• by 97% and 95%, respectively. Mono-O-substituted 4-NC derivatives 2–5 inhibited ABTS+• by 89–93%. […] The antioxidant activity was also evaluated in mouse embryonic 3T3L1 fibroblasts. In this assay DCFH-DA (2',7'-dichlorofluorescein diacetate) is hydrolyzed by intracellular esterases and then oxidized by reactive oxygen species (ROS) to the fluorescent compound 2'-7'-DCF. An active antioxidant substance can inhibit the transformation of fatty acids to fatty acid hydroperoxides in the cell membranes and thereby inhibit the oxidation of DCFH-DA.
The antioxidant activity of 4-NC and semi-synthetic derivatives of 4-NC was evaluated on the 1st and 30th days after dissolving the substances in DMSO at a concentration of 10 mM and storage in a freezer at −20 °C. This experiment permitted the evaluation of the relative stability of the antioxidant activity of 4-NC, derivatives of 4-NC, BHT and BHA. Thus, cellular antioxidants were evaluated using the mouse embryonic fibroblast 3T3L1 cell line. […] The presence of mono-O or di-O,O substituent groups in the 4-NC derivatives can confer stability relative to 4-NC. Such chemical stability is highly desirable when contemplating the use of such substances in cosmetic and pharmaceutical formulations and foods. Here, 4-NC dissolved in DMSO lost more than 80% of its antioxidant activity after 30 days in the freezer.
Intracellular ROS production was detected using the non-fluorescent cell permeating compound, 2'7'-dichlorofluorescein diacetate (DCF-DA), as described by Wolfe and Liu. DCF-DA is hydrolyzed by intracellular esterases and then oxidized by hydroperoxides into the fluorescent compound, 2'-7'-DCF. 3T3-L1 cells were seeded at a density of 6 × 10^4 cells/well in a 96-well microplate in 100 μL of growth medium. 24 h after seeding, the growth medium was removed and the wells were washed with PBS. Then, a 10 μM solution of DCFH-DA dissolved in Hank’s buffer (100 μL) was added to wells and incubated for 30 min at 37 °C and 5% CO2. The cells were washed first with PBS (100 μL) then EEP (100 µL) and samples having different concentrations were added. The fluorescence was immediately measured at an excitation wavelength of 485 nm and emission wavelength of 520 nm over 60 min at 5 min intervals. Controls with/without DCFH-DA were prepared and subjected to analogous procedures. Quercetin, BHA and BHT were used as positive controls of antioxidant activity.

[2] = test system: human leukemia cells (HL-60 and CEM); set-up: method as in ref 1 = [1]; 1. Pinto A.C.S. Pessoa C.O. Costa-Lotufo L.V. Moraes M.O. Moraes M.E.A. Cavalcanti B.C. Nunomura S.M. Pohlit A.M. In vitro cytotoxicity of Pothomorphe peltata (L.) Miquel (Piperaceae), isolated 4-nero; details: cited from earlier work
Plasmodium berghei = details: oral doses of 1–10 mg/kg/day (2.5–25 µmol/kg/day), 4-day suppressive test; cited from earlier work
Artemia franciscana = experiment: Brine shrimp assay; details: in vivo
Brine shrimp assay = experiment: Brine shrimp assay; set-up: species or system Artemia franciscana; details: Artemia franciscana (brine shrimp), in vivo; read-out: Toxicity Brine shrimp (Artemia franciscana) (LC50)
[3] = DPPH radical-scavenging activity; format: biochemical; details: compounds tested at 250 µM; mean ± standard deviation, n = 3
Description: The measurement of the scavenger activity of DPPH• was carried out according to the method of Molineux with modifications. Substances at 250 µM were added, at an equal volume, to the methanol solution of DPPH• ([…]). After 15 min at room temperature, the absorbance was recorded at 517 nm (sample abs). The experiment was repeated three times. BHT, BHA were used as controls. Values denote percentage of DPPH free radical inhibition. The antioxidant activity was calculated using the equation: % inhibition = 100 × (1 − sample abs/control abs).

[4] = ABTS radical-scavenging activity; format: biochemical; details: compounds tested at 250 µM; mean ± standard deviation, n = 3
Description: The ABTS assay used herein was based on the method of Re et al. with slight modifications. Substances at concentrations of 250 µM, BHT or BHA were added to dilute ABTS solution and the absorbance at […] was measured. The antioxidant activity was calculated using the equation: % inhibition = 100 × (1 − sample abs/control abs).

C=CC(C)(CC/C=C(\C)CCC=C(C)C)c1ccc(OC(C)=O)c(OC(C)=O)c1 (stereo not shown) [Compound 7, O,O-diacetyl-4-nerolidylcatechol]
inhibition of the oxidation of DCFH-DA in 3T3L1 cells [1]: ≥ 20%
IC50 [2]: 15.5 to 15.6 µM
in vivo inhibitory activity in P. berghei-infected mice (Plasmodium berghei): significant in vivo inhibitory activity
cytotoxic activity against Artemia franciscana in the brine shrimp assay (Artemia franciscana): moderately toxic
LC50 (Brine shrimp assay): 83 µM
DPPH• (%) percentage of inhibition [3]: 6.36 ± 1.15 ^c %
ABTS (%) percentage of inhibition [4]: 8.60 ± 0.10 ^b %
